Reference: ChEMBL document CHEMBL1151752, “Synthesis and structure-activity relationships of 2-amino-1-aroylnaphthalene and 2-hydroxy-1-aroylnaphthalenes as potent antitubulin agents” (J Med Chem, 2008)
pIC50: −log10 of the molar value.

What was measured:
KB [1] = test: Growth inhibition of human KB cells after 72 hrs by methylene blue dye assay; format: functional, cell-based
KB [2] = test: Growth inhibition of human Pgp170 overexpressing multidrug resistant-KB-VIN10 cells after 72 hrs by methylene blue dye assay; format: functional, cell-based
NCI-H460 = test: Growth inhibition of human H460 cells after 72 hrs by methylene blue dye assay; format: functional, cell-based; conditions: NCI-H460, 72 h
HT-29 = test: Growth inhibition of human HT-29 cells after 72 hrs by methylene blue dye assay; format: functional, cell-based; conditions: HT-29, 72 h
MKN-45 = test: Growth inhibition of human MKN45 cells after 72 hrs by methylene blue dye assay; format: functional, cell-based; conditions: MKN-45, 72 h
[3] = Inhibition of tubulin polymerization after 30 mins
KB [4] = test: Growth inhibition of human Pgp170 overexpressing multidrug resistant-KB-TAX50 cells after 72 hrs by methylene blue dye assay; format: functional, cell-based
KB [5] = test: Growth inhibition of human KB-7D cells overexpressing multidrug resistant associated protein after 72 hrs by methylene blue dye assay; format: functional, cell-based
[6] = Displacement of [3H]colchicine from tubulin after 2 hrs at 5 uM
[7] = Growth inhibition of human fibroblast Detrot 551 cells after 72 hrs by methylene blue dye assay; format: cell-based; conditions: Detrot 551, 72 h

Row | Structure (SMILES) | pIC50 (KB [1]) | pIC50 (KB [2]) | pIC50 (NCI-H460) | pIC50 (HT-29) | pIC50 (MKN-45) | pIC50 [3] | pIC50 (KB [4]) | pIC50 (KB [5]) | Activity [6] | pIC50 [7]
1 | COc1ccc2c(N)c(C(=O)c3cc(OC)c(OC)c(OC)c3)ccc2c1 | 5.06 | 5.10 | < 5.00 | 5.01 | 5.13 | < 5.00 | – | – | – | –
2 | CC[C@]1(O)C[C@H]2CN(CCc3c([nH]c4ccccc34)[C@@](C(=O)OC)(c3cc4c(cc3OC)N(C=O)[C@H]3[C@@](O)(C(=O)OC)[C@H](OC(C)=O)[C@]5(CC)C=CCN6CC[C@]43[C@@H]65)C2)C1 [VINCRISTINE] | 9.40 | 7.05 | – | – | – | – | 7.75 | 8.92 | – | –
3 | CCCc1ccc2cc(OC)ccc2c1C(=O)c1cc(OC)c(OC)c(OC)c1 | 6.00 | 5.96 | 6.01 | 5.88 | 6.08 | – | – | – | – | –
4 | COc1ccc2c(C(=O)c3cc(OC)c(OC)c(OC)c3)cccc2c1 | 7.14 | 7.24 | 7.07 | 7.16 | 7.36 | 5.37 | – | – | 68% | –
5 | COc1ccc2c(C(=O)c3cc(OC)c(OC)c(OC)c3)c(C)ccc2c1 | 6.56 | 6.58 | 6.49 | 6.39 | 6.60 | 5.54 | – | – | 67% | –
6 | COc1ccc(/C=C\c2cc(OC)c(OC)c(OC)c2)cc1O | – | – | – | – | – | – | – | – | 93% | –
7 | CNc1ccc2cc(OC)ccc2c1C(=O)c1cc(OC)c(OC)c(OC)c1 | 6.42 | 6.44 | 6.38 | 6.29 | 6.47 | – | – | – | – | –
8 | COc1ccc2c(OC)c(C(=O)c3cc(OC)c(OC)c(OC)c3)ccc2c1 | < 5.00 | < 5.00 | < 5.00 | < 5.00 | < 5.00 | – | – | – | – | –
9 | CCOc1ccc2cc(OC)ccc2c1C(=O)c1cc(OC)c(OC)c(OC)c1 | 6.00 | 6.04 | 5.92 | 5.95 | 6.06 | – | – | – | – | –
10 | COc1ccc2c(C(=O)c3cc(OC)c(OC)c(OC)c3)c(N(C)C)ccc2c1 | < 5.00 | < 5.00 | < 5.00 | < 5.00 | < 5.00 | – | – | – | – | –
11 | COc1ccc2c(O)c(C(=O)c3cc(OC)c(OC)c(OC)c3)ccc2c1 | < 5.00 | < 5.00 | < 5.00 | < 5.00 | < 5.00 | – | – | – | – | –
12 | COc1ccc2c(C(=O)c3cc(OC)c(OC)c(OC)c3)c(OC)ccc2c1 | 7.19 | 7.15 | 7.08 | 6.84 | 7.28 | 5.57 | – | – | 52% | –
13 | COc1ccc2c(C(=O)c3cc(OC)c(OC)c(OC)c3)c(O)ccc2c1 | 8.09 | 7.96 | 7.90 | 7.58 | 7.68 | 5.59 | 7.82 | 7.77 | 75% | < 6.00
14 | COc1cc([C@@H]2c3cc4c(cc3[C@@H](O[C@@H]3O[C@@H]5CO[C@@H](C)O[C@H]5[C@H](O)[C@H]3O)[C@H]3COC(=O)[C@H]23)OCO4)cc(OC)c1O [ETOPOSIDE] | – | 4.64 | – | – | – | – | 5.46 | 4.27 | – | –
15 | CCCOc1ccc2cc(OC)ccc2c1C(=O)c1cc(OC)c(OC)c(OC)c1 | 5.59 | 5.61 | 5.57 | 5.55 | 5.75 | – | – | – | – | –
16 | COc1ccc2c(C(=O)c3cc(OC)c(OC)c(OC)c3)c(N)ccc2c1 | 8.54 | 8.48 | 8.44 | 7.81 | 8.68 | 5.62 | 8.51 | 8.46 | 85% | < 6.00
17 | CCc1ccc2cc(OC)ccc2c1C(=O)c1cc(OC)c(OC)c(OC)c1 | 6.22 | 6.29 | 6.12 | 6.18 | 6.49 | – | – | – | – | –
18 | COc1cc2c(c(OC)c1OC)-c1ccc(OC)c(=O)cc1[C@@H](NC(C)=O)CC2 [COLCHICINE] | 7.96 | – | 7.74 | 8.00 | – | 5.49 | – | – | – | –
19 | COc1ccc2c(C(=O)c3cc(OC)c(OC)c(OC)c3)c[nH]c2c1 | 8.34 | 8.21 | 8.15 | 8.23 | 8.49 | 5.55 | – | – | 85% | –
20 | CC(=O)O[C@H]1C(=O)[C@@]2(C)[C@H]([C@H](OC(=O)c3ccccc3)[C@]3(O)C[C@H](OC(=O)[C@H](O)[C@@H](NC(=O)c4ccccc4)c4ccccc4)C(C)=C1C3(C)C)[C@]1(OC(C)=O)CO[C@@H]1C[C@@H]2O [PACLITAXEL] | 8.48 | 4.78 | – | – | – | – | 6.56 | 8.10 | – | –
21 | COc1ccc2cc(C(=O)c3cc(OC)c(OC)c(OC)c3)ccc2c1 | 6.29 | 6.28 | 6.15 | 6.26 | 6.34 | – | – | – | – | –
